Reference: US9540389B2, “Antimicrobial potentiators” (priority 2013, dated 2017)
≈ marks a conversion by molar mass, not a printed value.

How the values were obtained:
[1] = system: Escherichia coli AB1157 (WT); assay: Checkerboard MIC assay (antibacterial agent + MBX2319); assay type: cell-based; details: WT
Text: (§1) • Strains and Reagents. The following strains were obtained from the Keio collection (Baba, et al.: Construction of Escherichia coli K-12 in-frame, single-gene knockout mutants: the Keio collection. In Mol Syst Biol, vol. 2, pp. 2006 0008, (2006)): JW0451 (ΔacrB::kan), JW5503 (ΔtolC::kan), JW3234 (ΔacrF::kan), JW2661 (ΔemrB::kan), JW0863 (ΔmacB::kan). The deletion mutations in each of these strains were transferred to AB1157 using P1 phage transduction (see Table 1). The construction of the E. coli cell-based reporter strain (SOS-XXX) that was used for high throughput screening is described in detail in the supplementary information. […] Irgasan was a generous gift from Ciba Speciality Chemicals, Inc. (High Point, N.C.). Hoechst 33342 (H33342) was purchased from Molecular Probes (Eugene, Oreg.). […] Luria Broth (Miller) and agar were purchased as prepared dehydrated media from Becton Dickenson (Franklin Lakes, N.J.). The compound libraries used in high-throughput screens were purchased from Chembridge (San Diego, Calif.), ChemDiv (San Diego, Calif.), and TimTec (Newark, Del.). MBX2319 was synthesized by Microbiotix, Inc. • Antibacterial Activity Assays. The minimal inhibitory concentration (MIC) of antibacterial agents and biocides were determined using the microbroth dilution method essentially as described in the CLSI protocol M7-A7 (CLSI: Method for dilution antimicrobial susceptibility testing for bacteria that grow aerobically; Approved standard-document M7-A7. In Clinical and Laboratory Standards Institute document M7-A7, Clinical and Laboratory Standards Institute, Wayne, Pa., (2006)), with the following exceptions. LB media was used instead of MHB. […] The final concentration of DMSO in each assay was 2%. […] MIC assays were performed in triplicate and the geometric mean was calculated. Checkerboard MIC assays using an EPI and an antibacterial agent were performed essentially as described (Pillai, et al.: Antimicrobial Combinations. In Antibiotics in Laboratory Medicine, ed. by V. Lorian, pp. 365-440, Lippincott Williams & Wilkins, Philadelphia, Pa., (2005)), with the same modifications used for the MIC assays described above. • Time-Kill Assays. Killing curve assays were performed essentially as described (Pillai, et al.: Antimicrobial Combinations. In Antibiotics in Laboratory Medicine, ed. by V. Lorian, pp. 365-440, Lippincott Williams & Wilkins, Philadelphia, Pa., (2005)). Exponential bacterial cultures grown in LB were diluted to a cell density of ˜1×10^7 in LB followed by addition of CIP and/or an EPI. Viability was monitored over 2-4 hours by making serial dilutions in saline and spotting 5 μl of each dilution onto the surface of an LB agar plate in triplicate. Colonies were counted after the plates were incubated at 37° C. for 16-18 hr, colony forming units (CFU) per ml were calculated, and the average and standard deviation for the three replicates was determined. For treatments that decreased CFU/ml below the limit of detection for the spot plating method, the 100 μl samples were diluted into 5 ml LB top agar, were poured onto LB agar plates, and incubated for 18 hr at 37° C. To calculate the fraction of the control for each sample, the average CFU/ml values for treated samples were divided by those from the same sample at 0 h (time=0). Each experiment was repeated at least three times, and a representative experiment is shown. • H33342 Accumulation Assay. The rate of accumulation of the fluorescent dye Hoechst 33342 (H33342), which is a substrate of a wide variety of bacterial efflux pumps (van den Berg van Saparoea, et al., Biochemistry, vol. 44, pp. 16931-16938, (2005)), can be used to estimate the activity of the major efflux pumps in E. coli and many other bacterial species. The H33342 accumulation assay was used to evaluate the effect of EPIs on the activity of the AcrAB-TolC efflux pump in several bacterial species essentially as described (Coldham, et al., J Antimicrob Chemother, vol. 65, pp. 1655-1663, (2010)). […]

[2] = system: Escherichia coli AB1157 ΔacrB; assay: as above; assay type: cell-based
Text: as §1

[3] = system: Escherichia coli AB1157 ΔacrF; assay: as above; assay type: cell-based
Text: as §1

[4] = system: Escherichia coli AB1157 ΔtolC; assay: as above; assay type: cell-based
Text: as §1

[5] = system: Enterobacter aerogenes ATCC 13048; assay: MIC assay (microbroth dilution) ± 25 μM EPI; assay type: cell-based
Text: as §1

Escherichia coli 331 = assay: MIC assay (microbroth dilution) ± 25 μM EPI; assay type: cell-based; details: E. coli 331
Text: as §1

Escherichia coli AB1157 [6] = assay: MIC assay (microbroth dilution) ± 25 μM EPI; assay type: cell-based; details: E. coli AB1157 (WT); + 25 μM MBX2319; geometric mean
Text: as §1

[7] = system: Escherichia coli ATCC 25922; assay: MIC assay (microbroth dilution) ± 25 μM EPI; assay type: cell-based; details: E. coli ATCC 25922
Text: as §1

[8] = system: Klebsiella pneumoniae ATCC 700603; assay: MIC assay (microbroth dilution) ± 25 μM EPI; assay type: cell-based
Text: as §1

[9] = system: Salmonella enterica ATCC 14028; assay: MIC assay (microbroth dilution) ± 25 μM EPI; assay type: cell-based
Text: as §1

[10] = system: Shigella flexneri ATCC 12022; assay: MIC assay (microbroth dilution) ± 25 μM EPI; assay type: cell-based
Text: as §1

P. aeruginosa ATCC 27853 = assay: MIC assay (microbroth dilution) ± 25 μM EPI; assay type: cell-based, Pseudomonas aeruginosa
Text: as §1

Escherichia coli AB1157 [11] = assay: microbe, parasite or virus in culture
[12] = Escherichia coli, read-out: MIC (μg/ml) with MBX2319 at concn (μM) of: 0

SMILES: C[C@H]1COc2c(N3CCN(C)CC3)c(F)cc3c(=O)c(C(=O)O)cn1c23 [Levofloxacin]
- MIC (μg/ml) with MBX2319 at concn (μM) of: 3.13 ([1]; MBX2319 3.13 μM): 0.016 µg/mL
- MIC (μg/ml) with MBX2319 at concn (μM) of: 6.25 ([1]; MBX2319 6.25 μM): 0.016 µg/mL
- MIC (μg/ml) with MBX2319 at concn (μM) of: 25 ([1]; MBX2319 25 μM): 0.016 µg/mL
- MIC (μg/ml) with MBX2319 at concn (μM) of: 50 ([1]; MBX2319 50 μM): 0.016 µg/mL
- MIC (μg/ml) with MBX2319 at concn (μM) of: 12.5 ([1]; MBX2319 […]): 0.016 µg/mL
- MIC [2, 12]: 0.016 µg/mL
- MIC (μg/ml) with MBX2319 at concn (μM) of: 1.56 ([2]; ΔacrB, MBX2319 1.56 μM): 0.016 µg/mL
- MIC (μg/ml) with MBX2319 at concn (μM) of: 3.13 ([2]; ΔacrB, MBX2319 3.13 μM): 0.016 µg/mL
- MIC (μg/ml) with MBX2319 at concn (μM) of: 6.25 ([2]; ΔacrB, MBX2319 6.25 μM): 0.016 µg/mL
- MIC (μg/ml) with MBX2319 at concn (μM) of: 25 ([2]; ΔacrB, MBX2319 25 μM): 0.016 µg/mL
- MIC (μg/ml) with MBX2319 at concn (μM) of: 50 ([2]; ΔacrB, MBX2319 50 μM): 0.016 µg/mL
- MIC (μg/ml) with MBX2319 at concn (μM) of: 12.5 ([2]; ΔacrB, MBX2319 […]): 0.016 µg/mL
- MIC [3, 12]: 0.063 µg/mL
- MIC (μg/ml) with MBX2319 at concn (μM) of: 6.25 ([3]; ΔacrF, MBX2319 6.25 μM): 0.016 µg/mL
- MIC (μg/ml) with MBX2319 at concn (μM) of: 25 ([3]; ΔacrF, MBX2319 25 μM): 0.016 µg/mL
- MIC (μg/ml) with MBX2319 at concn (μM) of: 50 ([3]; ΔacrF, MBX2319 50 μM): 0.016 µg/mL
- MIC (μg/ml) with MBX2319 at concn (μM) of: 12.5 ([3]; ΔacrF, MBX2319 […]): 0.016 µg/mL
- MIC [4, 12]: 0.016 µg/mL
- MIC (μg/ml) with MBX2319 at concn (μM) of: 1.56 ([4]; ΔtolC, MBX2319 1.56 μM): 0.016 µg/mL
- MIC (μg/ml) with MBX2319 at concn (μM) of: 3.13 ([4]; ΔtolC, MBX2319 3.13 μM): 0.016 µg/mL
- MIC (μg/ml) ± EPI: MBX2319 ([5]; + 25 μM MBX2319): 0.044 µg/mL
- MIC (μg/ml) ± EPI: PAβN ([5]; + 25 μM PAβN): 0.063 µg/mL
- MIC ([5]; Klebsiella aerogenes, ATCC13048, no EPI, read-out: MIC (μg/ml) ± EPI: None): 0.177 µg/mL
- MIC (μg/ml) ± EPI: MBX2319 (Escherichia coli 331; + 25 μM MBX2319): 11.3 µg/mL
- MIC (μg/ml) ± EPI: PAβN (Escherichia coli 331; + 25 μM PAβN): 32 µg/mL
- MIC (Escherichia coli 331; Escherichia coli, no EPI, read-out: MIC (μg/ml) ± EPI: None): 64 µg/mL
- MICs (μg/ml) ± EPIs: MBX2319 (Escherichia coli AB1157 [6]): 0.016 µg/mL
- MIC (μg/ml) ± EPI: MBX2319 ([7]; + 25 μM MBX2319): 0.013 µg/mL
- MIC (μg/ml) ± EPI: PAβN ([7]; + 25 μM PAβN): 0.022 µg/mL
- MIC (μg/ml) ± EPI: MBX2319 ([8]; + 25 μM MBX2319): 0.149 µg/mL
- MIC (μg/ml) ± EPI: PAβN ([8]; + 25 μM PAβN): 0.5 µg/mL
- MIC ([8]; ATCC700603, no EPI, read-out: MIC (μg/ml) ± EPI: None): 0.71 µg/mL
- MIC (μg/ml) ± EPI: MBX2319 ([9]; + 25 μM MBX2319): 0.016 µg/mL
- MIC (μg/ml) ± EPI: PAβN ([9]; + 25 μM PAβN): 0.044 µg/mL
- MIC ([9]; ATCC14028, no EPI, read-out: MIC (μg/ml) ± EPI: None): 0.062 µg/mL
- MIC (μg/ml) ± EPI: MBX2319 ([10]; Shigella flexneri ATCC 12022, + 25 μM MBX2319): 0.016 µg/mL
- MIC (μg/ml) ± EPI: PAβN ([10]; Shigella flexneri ATCC 12022, + 25 μM PAβN): 0.031 µg/mL
- MIC ([10]; Shigella flexneri, ATCC12022, read-out: MIC (μg/ml) ± EPI: None): 0.063 µg/mL
- MIC (μg/ml) ± EPI: MBX2319 (P. aeruginosa ATCC 27853; + 25 μM MBX2319): 1 µg/mL
- MIC (μg/ml) ± EPI: PAβN (P. aeruginosa ATCC 27853; + 25 μM PAβN): 0.5 µg/mL
- MIC (P. aeruginosa ATCC 27853; Pseudomonas aeruginosa, ATCC27853, no EPI, read-out: MIC (μg/ml) ± EPI: None): 1 µg/mL
- MIC (Escherichia coli AB1157 [11]): 0.06 µg/mL (≈ 0.166 µM)
